# Measurements as given in patent US20040029965A1, “Formulations for reducing or eliminating toxicity of enviromental hormones containing ursodeoxycholic acid” (priority 2000, published 2004).
# Assays:
# C57B1/6J mice [1] = assay: Effect of UDCA on death (death rate, death time) of mice by a single subcutaneous injection of TCDD; type: in vivo
# Method: (§1) Male C57B1/6J mice of 5 weeks old having the average weight of 18-22 g which had been bred in CRJ (Charles River in Japan) were purchased and used in this example as experimental animals. Those mice were acclimated under the constant breeding condition, i.e. the temperature of 24±1° C., the humidity of 60±10% and the light and darkness cycle of 12 hours, for one week and thereafter, utilized in the experiment.
# The Experimental animals were supplied with Purina powdered feed (purchased from Hae Eun Trade) and supplied with water ad libitum. All the animals were weighed twice a week during experimentation.
# (§2) 2,3,7,8-tetrachlorodibenzo-p-dioxin (TCDD) dissolved in toluene (purity of 95% or more as a result of gas chromatography analysis), manufactured by Chem. Services Inc. in USA, was volatilized with nitrogen to obtain powder. The obtained powder was dissolved in a mixed solvent containing acetone and corn oil with a volume ratio of 1:6. The resulting solution each containing 110, 27.5 and 6.9 μg/kg of TCDD was subcutaneously injected to mice at a volume of 5 ml per body weight. […] The mice were supplied with the feed from 10 days before (pre-administration) to 60 days after administration of TCDD (post-administration).
# (§3) The results are expressed as Mean±Standard Deviation values. For statistical analysis of the body weight, feed and water uptake, biochemical findings, hematological findings and the weight of organ in an acute toxicity test, verification was performed by one way analysis of variance (ANOVA) in case of equal distribution. In case significance was recognized in ANOVA, the Student's t-test was performed in the levels of p<0.05 and p<0.01.
# C57B1/6J mice [2] = assay: Organ weights (liver, kidneys, testes, epididymides) of mice after a single subcutaneous injection of TCDD; type: in vivo
# Method: as §1, §2
# Upon completion of the experiment for 60 days, the experimental animals were fasted for 24 hours and anesthetized with ether. Then, they were abdominally incised and blood was gathered from abdominal vena cava. They were sacrificed by the release of blood. Liver, kidneys, testes and epididymides were extracted and all the extracted organs were weighed. Only the testes were separately kept and observed under optical and electron microscopes. For biochemical finding test, serum was separated from blood with a centrifuge and the separated serum was analyzed with an automated blood biochemical analyzer, Dimension (Dupont, USA). Blood was put to another blood gathering bottle and then, analyzed with an automated blood cell analyzer, Celldyn (Abbott, USA).
# as §3
# The organs, i.e. liver, kidneys, testes and epididymides, were weighed and the results are shown in the following.
# [3] = TCDD 6.9 μg/kg + UDCA 0.125 wt %
# [4] = TCDD 6.9 μg/kg + UDCA 0.25 wt %
# [5] = TCDD 27.5 μg/kg + UDCA 0.125 wt %
# [6] = TCDD 110.0 μg/kg + UDCA 0.125 wt %
# [7] = TCDD 110.0 μg/kg + UDCA 0.25 wt %
# [8] = TCDD 110.0 μg/kg + UDCA 0.5 wt %
smiles,measurement,setting,value
"C[C@H](CCC(=O)O)[C@H]1CC[C@H]2[C@@H]3[C@@H](O)C[C@@H]4C[C@H](O)CC[C@]4(C)[C@H]3CC[C@]12C [UDCA, 3α, 7β-dihydroxy-5β-cholanoic acid]",Death rate,C57B1/6J mice [1]; [3],0%
same,No. of dead mice/No. of administered mice,C57B1/6J mice [1]; [3],0/10
same,Death rate,C57B1/6J mice [1]; [4],0%
same,No. of dead mice/No. of administered mice,C57B1/6J mice [1]; [4],0/10
same,Death rate,C57B1/6J mice [1]; TCDD 6.9 μg/kg + UDCA 0.5 wt %,0%
same,No. of dead mice/No. of administered mice,C57B1/6J mice [1]; TCDD 6.9 μg/kg + UDCA 0.5 wt %,0/10
same,No. of dead mice/No. of administered mice,C57B1/6J mice [1]; [5],0/10
same,No. of dead mice/No. of administered mice,C57B1/6J mice [1]; TCDD 27.5 μg/kg + UDCA 0.25 wt %,0/10
same,No. of dead mice/No. of administered mice,C57B1/6J mice [1]; TCDD 27.5 μg/kg + UDCA 0.5 wt %,0/10
same,Death time (Mean ± SD),C57B1/6J mice [1]; [6],33 ± 4 days
same,No. of dead mice/No. of administered mice,C57B1/6J mice [1]; [6],10/10
same,Death rate,C57B1/6J mice [1]; [7],90%
same,Death time (Mean ± SD),C57B1/6J mice [1]; [7],34 ± 5 days
same,No. of dead mice/No. of administered mice,C57B1/6J mice [1]; [7],9/10
same,Death rate,C57B1/6J mice [1]; [8],40%
same,Death time (Mean ± SD),C57B1/6J mice [1]; [8],51 ± 8 days
same,No. of dead mice/No. of administered mice,C57B1/6J mice [1]; [8],4/10
same,Left epididymis Relative weight,C57B1/6J mice [2]; [3],0.121 ± 0.011 %
same,Left epididymis Weight,C57B1/6J mice [2]; [3],0.029 ± 0.003 g
same,Left kidney Relative weight,C57B1/6J mice [2]; [3],0.480 ± 0.050%
same,Left kidney Weight,C57B1/6J mice [2]; [3],0.116 ± 0.014 g
same,Left testis Relative weight,C57B1/6J mice [2]; [3],0.297 ± 0.020%
same,Left testis Weight,C57B1/6J mice [2]; [3],0.072 ± 0.006 g
same,Liver Relative weight,C57B1/6J mice [2]; [3],4.069 ± 0.167%
same,Liver Weight,C57B1/6J mice [2]; [3],0.980 ± 0.073 g
same,Right epididymis Relative weight,C57B1/6J mice [2]; [3],0.121 ± 0.014%
same,Right epididymis Weight,C57B1/6J mice [2]; [3],0.029 ± 0.003 g
same,Right kidney Relative weight,C57B1/6J mice [2]; [3],0.511 ± 0.049%
same,Right kidney Weight,C57B1/6J mice [2]; [3],0.123 ± 0.008 g
same,Right testis Relative weight,C57B1/6J mice [2]; [3],0.304 ± 0.020%
same,Right testis Weight,C57B1/6J mice [2]; [3],0.073 ± 0.007 g
same,Left epididymis Relative weight,C57B1/6J mice [2]; [4],0.121 ± 0.011 %
same,Left epididymis Weight,C57B1/6J mice [2]; [4],0.030 ± 0.003 g
same,Left kidney Relative weight,C57B1/6J mice [2]; [4],0.484 ± 0.036%
same,Left kidney Weight,C57B1/6J mice [2]; [4],0.119 ± 0.009 g
same,Left testis Relative weight,C57B1/6J mice [2]; [4],0.287 ± 0.036%
same,Left testis Weight,C57B1/6J mice [2]; [4],0.071 ± 0.008 g
same,Liver Relative weight,C57B1/6J mice [2]; [4],3.870 ± 0.289%
same,Liver Weight,C57B1/6J mice [2]; [4],0.954 ± 0.057 g
same,Right epididymis Relative weight,C57B1/6J mice [2]; [4],0.115 ± 0.009%
same,Right epididymis Weight,C57B1/6J mice [2]; [4],0.029 ± 0.002 g
same,Right kidney Relative weight,C57B1/6J mice [2]; [4],0.500 ± 0.048%
same,Right kidney Weight,C57B1/6J mice [2]; [4],0.123 ± 0.013 g
same,Right testis Relative weight,C57B1/6J mice [2]; [4],0.290 ± 0.030%
same,Right testis Weight,C57B1/6J mice [2]; [4],0.072 ± 0.008 g
same,Left epididymis Relative weight,C57B1/6J mice [2]; TCDD 6.9 μg/kg + UDCA 0.5 wt %,0.121 ± 0.010 %
same,Left epididymis Weight,C57B1/6J mice [2]; TCDD 6.9 μg/kg + UDCA 0.5 wt %,0.029 ± 0.003 g
same,Left kidney Relative weight,C57B1/6J mice [2]; TCDD 6.9 μg/kg + UDCA 0.5 wt %,0.500 ± 0.025%
same,Left kidney Weight,C57B1/6J mice [2]; TCDD 6.9 μg/kg + UDCA 0.5 wt %,0.121 ± 0.007 g
same,Left testis Relative weight,C57B1/6J mice [2]; TCDD 6.9 μg/kg + UDCA 0.5 wt %,0.310 ± 0.050%
same,Left testis Weight,C57B1/6J mice [2]; TCDD 6.9 μg/kg + UDCA 0.5 wt %,0.075 ± 0.010 g
same,Liver Relative weight,C57B1/6J mice [2]; TCDD 6.9 μg/kg + UDCA 0.5 wt %,4.258 ± 0.327%
same,Liver Weight,C57B1/6J mice [2]; TCDD 6.9 μg/kg + UDCA 0.5 wt %,1.028 ± 0.073 g
same,Right epididymis Relative weight,C57B1/6J mice [2]; TCDD 6.9 μg/kg + UDCA 0.5 wt %,0.114 ± 0.015%
same,Right epididymis Weight,C57B1/6J mice [2]; TCDD 6.9 μg/kg + UDCA 0.5 wt %,0.027 ± 0.004 g
same,Right kidney Relative weight,C57B1/6J mice [2]; TCDD 6.9 μg/kg + UDCA 0.5 wt %,0.516 ± 0.043%
same,Right kidney Weight,C57B1/6J mice [2]; TCDD 6.9 μg/kg + UDCA 0.5 wt %,0.125 ± 0.009 g
same,Right testis Relative weight,C57B1/6J mice [2]; TCDD 6.9 μg/kg + UDCA 0.5 wt %,0.307 ± 0.031%
same,Right testis Weight,C57B1/6J mice [2]; TCDD 6.9 μg/kg + UDCA 0.5 wt %,0.074 ± 0.007 g
same,Left epididymis Relative weight,C57B1/6J mice [2]; [5],0.112 ± 0.017%
same,Left epididymis Weight,C57B1/6J mice [2]; [5],0.027 ± 0.003 g
same,Left kidney Relative weight,C57B1/6J mice [2]; [5],0.517 ± 0.056 %
same,Left kidney Weight,C57B1/6J mice [2]; [5],0.127 ± 0.012 g
same,Left testis Relative weight,C57B1/6J mice [2]; [5],0.284 ± 0.025 %
same,Left testis Weight,C57B1/6J mice [2]; [5],0.070 ± 0.005 g
